This note sets out measurements from US8299089B2, “Multi-arm polymeric conjugates of 7-ethyl-10-hydroxycamptothecin for treatment of breast, colorectal, pancreatic, ovarian and lung cancers” (priority 2006, dated 2012).

One series deals with Colo 205. Description: In vitro cytotoxicity, MTS assay, Colo 205. The class given is cell-based. On the procedure:
(§1) In Table 2, the cytotoxicity (μM of each compound that results in an IC50) provides an indication of the in vitro anti-tumor potency of each compound. This study was used to determine the effect of PEGylation of four-arm PEGylated 7-ethyl-10-hydroxycamptothecin conjugates. […] Cells were incubated with drugs for 72 hours at 37° C. Following incubation, MTS dye was added and formation of a colored product (formazan) was measured at 490 nm.

Another series relates to HT29. Briefly: In vitro cytotoxicity, MTS assay, HT29. It counts as cell-based. The protocol: as §1
Another series deals with A549. Briefly: In vitro cytotoxicity, MTS assay, A549. The class given is cell-based. On the procedure:
as §1

The subject of a further series is PANC-1. Description: In vitro cytotoxicity, MTS assay, PANC-1. The note with it: Table 2; PANC-1, 72 hours; Compound 9 in 7-ethyl-10-hydroxycamptothecin equivalents; average ± SD (n = 3). The class given is cell-based. On the procedure:
as §1

The subject of another series is MIA PaCa-2. Description: In vitro cytotoxicity, MTS assay, MIA PaCa-2. It counts as cell-based. The note with it: Table 2; MIA PaCa-2, 72 hours; Compound 9 in 7-ethyl-10-hydroxycamptothecin equivalents; no SD = average of two replicates. On the procedure:
as §1

A further series relates to ASPC-1. Briefly: In vitro cytotoxicity, MTS assay, ASPC-1. It counts as cell-based. The conditions noted are these: Table 2; ASPC-1, 72 hours; Compound 9 in 7-ethyl-10-hydroxycamptothecin equivalents; average ± SD (n = 3). The protocol: as §1
Another series relates to BxPC-3. Description: In vitro cytotoxicity, MTS assay, BxPC-3. It counts as cell-based. The note with it: Table 2; BxPC-3, 72 hours; Compound 9 in 7-ethyl-10-hydroxycamptothecin equivalents; average ± SD (n = 3). On the procedure: as §1
The test system of the next series is OVCAR-3. Briefly: In vitro cytotoxicity, MTS assay, OVCAR-3. The class given is cell-based. On the procedure:
as §1

For the next series, the system named is OV90. Briefly: In vitro cytotoxicity, MTS assay, OV90. The class given is cell-based. The conditions noted are these: Table 2; OV90, 72 hours; Compound 9 in 7-ethyl-10-hydroxycamptothecin equivalents; average ± SD (n = 3). The protocol: as §1
The next series has as its system OVCAR-8. Briefly: In vitro cytotoxicity, MTS assay, OVCAR-8. It counts as cell-based. The conditions noted are these: Table 2; OVCAR-8, 72 hours; Compound 9 in 7-ethyl-10-hydroxycamptothecin equivalents; average ± SD (n = 3). The protocol: as §1
The next series deals with A2780. Description: In vitro cytotoxicity, MTS assay, A2780. It counts as cell-based. The conditions noted are these: Table 2; A2780, 72 hours; Compound 9 in 7-ethyl-10-hydroxycamptothecin equivalents; average ± SD (n = 3). On the procedure:
as §1

Another series has as its system SK-0V-3. Description: In vitro cytotoxicity, MTS assay, SK-0V-3. It counts as cell-based. The note with it: Table 2; SK-0V-3, 72 hours; Compound 9 in 7-ethyl-10-hydroxycamptothecin equivalents; average ± SD (n = 3). The protocol: as §1
Series [1] in a line: Solubility in aqueous saline solution. The class given is physicochemical.
In series [2] the test system is human mammary carcinoma (MX-1). Description: Multiple dose efficacy in MX-1 breast tumor xenograft mouse model. It counts as in vivo, nude mice. The conditions noted are these: i.v. 5 mg/kg/dose (q2d×6), day 31. On the procedure: The mice were dosed 5 mg/kg/day […] (every 2 days [q×2d]×6). Mouse weight and tumor sizes were monitored up to the 31st day after the first dose administration and subsequent administrations.

Series [3] can be described thus: Hydrolysis / 7-ethyl-10-hydroxycamptothecin release in human plasma. It counts as in vitro ADME. The conditions noted are these: for Doubling Time in Plasma, Human: 7-ethyl-10-hydroxycamptothecin formation rate from conjugates; for t1/2 in Human Plasma: PEG conjugate half life.
From the text: The aqueous stability and hydrolysis properties in rat and human plasma were monitored using UV based HPLC methods.
Series [4] is described as follows: 7-ethyl-10-hydroxycamptothecin release in mouse plasma. It counts as in vitro ADME. The note with it: 7-ethyl-10-hydroxycamptothecin formation rate from conjugates.
Series [5] is described as follows: 7-ethyl-10-hydroxycamptothecin release in rat plasma. It counts as in vitro ADME. The conditions noted are these: 7-ethyl-10-hydroxycamptothecin formation rate from conjugates.

On to `CCc1c2c(nc3ccc(O)cc13)-c1cc3c(c(=O)n1C2)COC(=O)[C@]3(O)CC` [7-ethyl-10-hydroxycamptothecin], for which the half-inhibitory concentration (IC50) with Colo 205 (Table 2, Colo 205, 72 hours, Compound 9 in 7-ethyl-10-hydroxycamptothecin equivalents, average ± SD (n = 3)) came to 200 ± 200 nM; in the series on Colo 205 (Table 3, Colo 205 (colorectal)), 80 nM; in the series with HT29 (Table 2, HT29, 72 hours, Compound 9 in 7-ethyl-10-hydroxycamptothecin equivalents, average ± SD (n = 3)), 100 ± 40 nM; in the series on HT29 (Table 3, HT29 (colorectal)), 80 nM; in the series with A549 (Table 2, A549, 72 hours, Compound 9 in 7-ethyl-10-hydroxycamptothecin equivalents, average ± SD (n = 3)), 1000 ± 100 nM; with PANC-1, 560 ± 380 nM. The IC50 is 180 nM in the series with MIA PaCa-2; 640 ± 130 nM with ASPC-1; 540 ± 580 nM with BxPC-3; 100 ± 20 nM with OVCAR-3 (Table 2, OVCAR-3, 72 hours, Compound 9 in 7-ethyl-10-hydroxycamptothecin equivalents, average ± SD (n = 3)); 100 ± 20 nM in the series with OV90; 30 ± 10 nM in the series with OVCAR-8. In addition, the IC50 worked out at 20 ± 10 nM in the series with A2780 and 200 ± 100 nM with SK-0V-3. For the same molecule, in [1], the “Solubility in Saline” value is “^a7-ethyl-10-hydroxycamptothecin is not soluble in saline”.
In the series on Colo 205 (Table 3, Colo 205 (colorectal)), “^40K4arm-PEG-Sar-(20)-(7-ethyl-10-hydroxycamptothecin) [Compound 23]” gave an IC50 of 40 nM. This molecule also came in with an IC50 in the series on HT29 (Table 3, HT29 (colorectal)) of 270 nM. In the series with A549 (Table 3, A549 (lung)), this molecule showed an IC50 of 11000 nM. Also, the IC50 in the series on OVCAR-3 (Table 3, OVCAR-3 (ovarian)) was determined as 170 nM. Further, in series [2], the “Chg in TV ± SD” value is recorded as −87 ± 12%, the Cures was 100%, the F/I is listed as 13% and the “Mean TV ± SD” value came to 12 ± 10 mm^3. Also, in [2], the “Median TV” value came to 14.6 mm^3, the Regressions is on record as 100%, the Survival came to 100% and the T/C is 1.9%. In series [2], this molecule yielded a TGI of 99%. In series [3], the “Doubling Time in Plasma, Human” value worked out at 28.8 min and the “t1/2 in Human Plasma” value came out at 19.0 min. The “Doubling Time in Plasma, Mouse” value in [4] was 43.4 min. In addition, the “Doubling Time in Plasma, Rat” value in series [5] is reported as 481 min.
In the series with Colo 205 (Table 3, Colo 205 (colorectal)), “^40k4arm-PEG-Ala-(20)-(7-ethyl-10-hydroxycamptothecin) [Compound 12]” registered an IC50 of 30 nM. This molecule also gave an IC50 in the series on HT29 (Table 3, HT29 (colorectal)) of 160 nM. The molecule further showed a concentration for half-maximal inhibition (IC50) in the series on A549 (Table 3, A549 (lung)) of 4400 nM. The same molecule displayed an IC50 with OVCAR-3 (Table 3, OVCAR-3 (ovarian)) of 140 nM. Moreover, in [2], the “Chg in TV ± SD” value is listed as −91 ± 11%, the Cures is 67%, the F/I amounted to 10% and the “Mean TV ± SD” value came to 10 ± 11 mm^3. In series [2], the “Median TV” value came out at 9.6 mm^3, the Regressions is 100%, the Survival came out at 100% and the T/C came to 1.2%. For the same molecule, the TGI in [2] amounted to 99%. Also, the “Solubility in Saline” value in series [1] is 121 mg/mL. Also, in series [3], the “Doubling Time in Plasma, Human” value is on record as 51.9 min and the “t1/2 in Human Plasma” value is 12.5 min. For the same molecule, the “Doubling Time in Plasma, Mouse” value in series [4] came to 45.8 min. For the same molecule, in series [5], the “Doubling Time in Plasma, Rat” value worked out at 753 min.
For “^40k4arm-PEG-Met-(20)-(7-ethyl-10-hydroxycamptothecin) [Compound 18]”, in the series on Colo 205 (Table 3, Colo 205 (colorectal)), it took 30 nM to reach half-maximal inhibition (IC50). Also, the IC50 in the series on HT29 (Table 3, HT29 (colorectal)) was found to be 140 nM. In the series with A549 (Table 3, A549 (lung)), this molecule yielded a concentration for half-maximal inhibition (IC50) of 1600 nM. In the series with OVCAR-3 (Table 3, OVCAR-3 (ovarian)), this molecule showed a 50% inhibitory concentration (IC50) of 130 nM. Also, in [2], the “Chg in TV ± SD” value is given as −94 ± 7%, the Cures came to 100%, the F/I was 7.8% and the “Mean TV ± SD” value came out at 8 ± 9 mm^3. Further, in series [2], the “Median TV” value is recorded as 5.6 mm^3, the Regressions came to 100%, the Survival was 100% and the T/C is listed as 0.7%. In series [2], this molecule returned a TGI of 99%. Moreover, the “Solubility in Saline” value in series [1] is reported as 142 mg/mL. Moreover, in series [3], the “Doubling Time in Plasma, Human” value is reported as 22.2 min and the “t1/2 in Human Plasma” value was 26.8 min. Further, in series [4], the “Doubling Time in Plasma, Mouse” value is 41.9 min. Besides, in series [5], the “Doubling Time in Plasma, Rat” value was found to be 1920 min.
